According to patent US20070010671A1, “Novel quinazoline derivatives and methods of treatment related to the use thereof” (priority 2003, published 2007):

Biological target: MCH receptor (Homo sapiens, UniProt Q99705)
Assay: High throughput functional screening FLIPR/FDSS6000: inhibition of MCH-evoked intracellular Ca2+ changes
Assay type: cell-based
Settings: class by percent of control at 10^-7 M or IC50
Source text: Subsequently, a functional based assay was used to confirm the lead hits, referred to as FLIPR™ (the Fluorometric Imaging Plate Reader) and FDSS6000™ (Functional Drug Screening System). This assay utilized 3 non-endozenous, constitutively active version of the MCH receptor.
The FLIPR and FDSS assays are able to detect intracellular Ca^2+ concentration in cells, which can be utilized to assess receptor activation and determine whether a candidate compound is an, for example, antagonist, inverse agonist or agonist to a Gq-coupled receptor. The concentration of free Ca^2+ in the cytosol of any cell is extremely low, whereas its concentration in the extracellular fluid and endoplasmic reticulum (ER) is very high. Thus, there is a large gradient tending to drive Ca^2+ into the cytosol across both the plasma membrane and ER. The FLIPR™ and FDSS6000™ systems (Molecular Devices Corporation, HAMAMATSU Photonics K.K.) are designed to perform functional cell-based assays, such as the measurement of intracellular calcium for high-throughput screening, The measurement of fluorescent is associated with calcium release upon activation of the Gq-coupled receptors.
Fluorometric Imaging Plate Reader system was used to allow for rapid, kinetic measurements of intracellular fluorescence in 96 well microplates (or 384 well microplates). Simultaneous measurements of fluorescence in all wells can be made by FLIPR or FDSS6000™ every second with high sensitivity and precision. These systems are ideal for measuring cell-based functional assays such as monitoring the intracellular calcium fluxes that occur within seconds after activation of the Gq coupled receptor.
Briefly, the cells are seeded into 96 well at 5.5×10^4 cells/well with complete culture media (Dulbecco's Modified Eagle Medium with 10% fetal bovine serum, 2 mMi L-glutamine, 1 mM sodium pyruvate and 0.5 mg/ml G418, pH 7.4) for the assay next day. On the day of assay, the media is removed and the cells are incubated with 100 μl of loading buffer (4 μM Fluo4-AM in complete culture media containing 2.5 mM Probenicid, 0.5 mg/ml and 0.2% bovine serum albumin) in 5% CO2 incubator at 37° C. for 1 hr. The loading buffer is removed, and the cells are washed with wash buffer (Hank's Balanced Salt Solution containing 2.5 mM Probenicid, 20 mM HEPES, 0.5 mg/ml and 0.2% bovine serum albumm, pH 7.4)). One hundred fifty μl of wash buffer containing various concentrations of test compound is added to the cells, and the cells are incubated in 5% CO2 incubator at 37° C. for 3 min. Fifty μl of wash buffer containing various concentration of MCH are added to each well, and transient changes in [Ca^2+]i evokled bee MCH are monoitored using the FLIPR, or FDSS in 96 shell plates at Ex. 488 nm and Em. 530 nm for 290 second. When antagonist activity of compound is tested, 50 nM of MCH is used.
Use of FLIPR™ and FDSS6000™ can be accomplished by following manufacturer's instruction (Molecular Device Corporation and HAMAMATSU Photonics K.K.).

SMILES	class
CN(C)c1nc(N[C@H]2CC[C@@H](CNC(=S)NCCC3=CCCCC3)CC2)nc2ccccc12 [compound 779]	3 (Class 3: The value of percent of control at 10^−7 M was more than 60% or the value of IC50 was more than 200 nM.)
COc1ccc(C)cc1NC(=O)NC[C@H]1CC[C@@H](Nc2nc(N(C)C)c3ccccc3n2)CC1 [compound 504]	1 (Class 1: The value of percent of control at 10^−7 M was less than 40% or the value of IC50 was less than 50 nM.)
CN(C)c1nc(N[C@H]2CC[C@@H](CNC(=S)Nc3ccc(OC(F)(F)F)cc3)CC2)nc2ccccc12 [compound 654]	3 (Class 3: The value of percent of control at 10^−7 M was more than 60% or the value of IC50 was more than 200 nM.)
CN(C)c1nc(N[C@H]2CC[C@@H](NC(=O)NC3CCN(C(=O)OCc4ccccc4)CC3)CC2)nc2ccccc12 [compound 350]	3 (Class 3: The value of percent of control at 10^−7 M was more than 60% or the value of IC50 was more than 200 nM.)
CC(=O)c1cccc(NC(=O)NC[C@H]2CC[C@@H](Nc3nc(N(C)C)c4ccccc4n3)CC2)c1 [compound 405]	3 (Class 3: The value of percent of control at 10^−7 M was more than 60% or the value of IC50 was more than 200 nM.)
CCCCCCCCCCc1ccc(NC(=S)N[C@H]2CC[C@@H](Nc3nc(N(C)C)c4ccccc4n3)CC2)cc1 [compound 315]	3 (Class 3: The value of percent of control at 10^−7 M was more than 60% or the value of IC50 was more than 200 nM.)
CN(C)c1nc(N[C@H]2CC[C@@H](CNC(=O)Nc3ccc(Br)cc3)CC2)nc2ccccc12 [compound 413]	3 (Class 3: The value of percent of control at 10^−7 M was more than 60% or the value of IC50 was more than 200 nM.)
COC(=O)[C@H](Cc1ccccc1)NC(=O)NC[C@H]1CC[C@@H](Nc2nc(N(C)C)c3ccccc3n2)CC1 (relative stereo) [compound 462]	3 (Class 3: The value of percent of control at 10^−7 M was more than 60% or the value of IC50 was more than 200 nM.)
CN(C)c1nc(N[C@H]2CC[C@@H](NC(=S)NCCCc3ccccc3)CC2)nc2ccccc12 [compound 264]	3 (Class 3: The value of percent of control at 10^−7 M was more than 60% or the value of IC50 was more than 200 nM.)
CN(C)c1nc(N[C@H]2CC[C@@H](CNC(=S)Nc3cccc(Cl)c3Cl)CC2)nc2ccccc12 [compound 634]	3 (Class 3: The value of percent of control at 10^−7 M was more than 60% or the value of IC50 was more than 200 nM.)

Same assay, conditions: class by percent of control at 10^-7 M or by IC50; read-out: class

SMILES	IC50 [µM]
CN(C)c1nc(N[C@H]2CC[C@@H](NC(=O)Nc3ccc(Cl)cc3[N+](=O)[O-])CC2)nc2ccccc12 [compound 147]	> 0.2
COc1ccc(-c2ccccc2)cc1NC(=S)N[C@H]1CC[C@@H](Nc2nc(N(C)C)c3ccccc3n2)CC1 [compound 179, N-(cis-4-{[4-(dimethylamino)quinazolin-2-yl]amino}cyclohexyl)-N′-(4-methoxybiphenyl-3-yl)thiourea]	0.05 to 0.2
CCOC(=O)c1cccc(NC(=O)N[C@H]2CC[C@@H](Nc3nc(N(C)C)c4ccccc4n3)CC2)c1 [compound 29, ethyl 3-({[(cis-4-{[4-(dimethylamino)quinazolin-2-yl]amino}cyclohexyl)amino]carbonyl}amino)benzoate]	< 0.05
CC(C)CNC(=S)N[C@H]1CC[C@@H](Nc2nc(N(C)C)c3ccccc3n2)CC1 [compound 178, N-(cis-4-{[4-(dimethylamino)quinazolin-2-yl]amino}cyclohexyl)-N′-isobutylthiourea]	0.05 to 0.2

Same assay, conditions: class by percent of control at 10^−7 M or by IC50; read-out: class

SMILES	IC50 [µM]
CN(C)c1nc(N[C@H]2CC[C@@H](C(=O)NCc3ccc(Cl)cc3Cl)CC2)nc2cc(F)c(F)cc12 [Example 1000, cis-N-(2,4-dichlorobenzyl)-4-{[4-(dimethylamino)-6,7-difluoroquinazolin-2-yl]amino}cyclohexanecarboxamide]	< 0.05
